Tested on: KRAS-mutant PDC multicell tumor spheroid viability
Assay: Anticancer human tumor 521955-158-R2-J5-PDC patient-derived pancreatic carcinoma cell line growth inhibition [KRAS2]
Conditions: for IC50: curve of first compound; for viability, T/C: stronger effect = lower value
Description: Multicellular complex tumor spheroid response to RAS pathway inhibitors in combination with a targeted agents in patient-derived cell lines with oncogenic KRAS variants from multiple cancer types
A high-throughput screen of multi-cell type tumor spheroids was designed to identify active combinations of targeted small molecules and KRAS pathway inhibitors. Complex spheroids include a stromal component modeled by human endothelial cells (HUVEC) and fibroblasts modeled by human mesenchymal stem cells (MSCs). The concentration ranges selected for each drug and investigational agent were based upon clinically achievable concentrations if the clinical Cmax of the agent was known.
Compounds. The drugs and investigational agents: BI-3406 (NSC825286), BAY-293 (NSC824723), batoprotafib (TNO155; NSC825523), sotorasib (AMG 510; NSC818433), MRTX1257 (NSC819558), elimusertib (BAY 1895344; NSC800525), molibresib (GSK525762; NSC774829), temuterkib (LY3214996; NSC803410), venetoclax (NSC766270), alisertib (NSC759677), olaparib (NSC753686), talazoparib (NSC767125), erdafitinib (NSC781556), ipatasertib (NSC767898), cabozantinib (NSC761068), nintedanib (NSC756659), abemaciclib (NSC768073), docetaxel (NSC628503), trametinib (NSC758246), and sapanisertib (NSC764658) were obtained from the National Cancer Institute (NCI) Developmental Therapeutics Program Chemical Repository. The FDA-approved anticancer drug set is available from the Developmental Therapeutics Program. […] The stock solutions were prepared in dimethyl sulfoxide (DMSO, Sigma-Aldrich, St. Louis, MO, cat. D2650) at 800-fold the tested concentration and stored at -70 degrees C prior to their use. All drugs and investigational agents were tested over a range starting from a high concentration at or near the clinical Cmax and decreasing in half-log increments. If the clinical Cmax for an agent had not been determined, the highest concentration tested was 10 microM.
Cell Culture. All cells were maintained in an incubator at 37 degrees C and 5% CO2 with 95% humidity. The PDC lines were cultured according to standard operating procedures established by the NCI PDMR (https://pdmr.cancer.gov/sops/default.htm). Briefly, all PDCs were thawed and cultured in Matrigel-coated flasks prepared with a working solution of 1X Ham's F-12 nutrient mix, without supplementation (Invitrogen, Waltham, MA, cat. 11765054), 100 U/mL penicillin-streptomycin (Invitrogen, cat. 15140122), and 2.5% Matrigel (Corning Inc., Corning, NY, cat. 354248) for the first three passages. All PDCs were cultured in complete DMEM/F-12 media containing advanced DMEM/F-12 (Invitrogen, cat. 12634028), 4.9% defined fetal bovine serum, heat inactivated (HyClone Laboratories Inc., Logan, UT, cat. SH30070.03HI), 389 ng/mL hydrocortisone (Sigma-Aldrich, cat. H4001), 9.7 ng/mL human EGF recombinant protein (Invitrogen, cat. PHG0313), 23.4 microg/mL adenine (Sigma-Aldrich, cat. A2786), 97.3 U/mL penicillin-streptomycin (Invitrogen, cat. 15140122), 1.9 mM L-glutamine (Invitrogen, cat. 25030081), and 9.7 microM Y-27632 dihydrochloride (Tocris Bioscience, Bristol, United Kingdom, cat. 1254). The PDCs were cultured in complete DMEM/F12 media without 9.7 microM Y-27632 dihydrochloride for at least two passages prior to the screen. The established cell line HOP-62 was cultured in RPMI 1640 medium, HEPES (Invitrogen, cat. 22400105) with 10% defined fetal bovine serum (HyClone Laboratories Inc., cat. SH30070.03) and 2 mM L-glutamine (Invitrogen, cat. 25030081). The pooled donor HUVEC were cultured in endothelial cell growth medium 2 (PromoCell, Heidelberg, Germany, cat. C-22011) and the hMSC were cultured in mesenchymal stem cell growth medium 2 (PromoCell, cat. C-28009). For all experiments, HUVEC and hMSC were used at passages </=5, while the malignant cell lines were used at passages </=15. […]

[1] = second compound 0.1 µM, first compound 0.0316 µM
[2] = second compound 0.1 µM, first compound 0.1 µM
[3] = second compound 0.1 µM, first compound 0.316 µM
[4] = second compound 0.1 µM, first compound 1 µM
[5] = second compound 0.316 µM, first compound 0.0316 µM
[6] = second compound 0.316 µM, first compound 0.1 µM
[7] = second compound 0.316 µM, first compound 0.316 µM
[8] = second compound 0.316 µM, first compound 1 µM
[9] = second compound 1 µM, first compound 0.0316 µM
[10] = second compound 1 µM, first compound 0.1 µM
[11] = second compound 1 µM, first compound 0.316 µM
[12] = second compound 1 µM, first compound 1 µM
[13] = second compound 3.16 µM, first compound 0.0316 µM
[14] = second compound 3.16 µM, first compound 0.1 µM
[15] = second compound 3.16 µM, first compound 0.316 µM
[16] = second compound 3.16 µM, first compound 1 µM
[17] = second compound 10 µM, first compound 0.0316 µM
[18] = second compound 10 µM, first compound 0.1 µM
[19] = second compound 10 µM, first compound 0.316 µM
[20] = second compound 10 µM, first compound 1 µM
[21] = second compound 0.1 µM, first compound 0.000316 µM
[22] = second compound 0.1 µM, first compound 0.001 µM
[23] = second compound 0.1 µM, first compound 0.00316 µM
[24] = second compound 0.1 µM, first compound 0.01 µM
[25] = second compound 0.316 µM, first compound 0.000316 µM
[26] = second compound 0.316 µM, first compound 0.001 µM
[27] = second compound 0.316 µM, first compound 0.00316 µM
[28] = second compound 0.316 µM, first compound 0.01 µM
[29] = second compound 1 µM, first compound 0.000316 µM
[30] = second compound 1 µM, first compound 0.001 µM
[31] = second compound 1 µM, first compound 0.00316 µM
[32] = second compound 1 µM, first compound 0.01 µM
[33] = second compound 3.16 µM, first compound 0.000316 µM
[34] = second compound 3.16 µM, first compound 0.001 µM
[35] = second compound 3.16 µM, first compound 0.00316 µM
[36] = second compound 3.16 µM, first compound 0.01 µM
[37] = second compound 10 µM, first compound 0.000316 µM
[38] = second compound 10 µM, first compound 0.001 µM
[39] = second compound 10 µM, first compound 0.00316 µM
[40] = second compound 10 µM, first compound 0.01 µM
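Further: viability read after seven days of drug exposure.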

Compound	IC50 (second compound 0.1 µM) [nM]	IC50 (second compound 0.316 µM) [nM]	IC50 (second compound 1 µM) [nM]	IC50 (second compound 3.16 µM) [nM]	IC50 (second compound 10 µM) [nM]	viability, T/C [1] [%]	viability, T/C [2] [%]	viability, T/C [5] [%]	viability, T/C [6] [%]	viability, T/C [9] [%]	viability, T/C [10] [%]	viability, T/C [13] [%]	viability, T/C [14] [%]	viability, T/C [17] [%]	viability, T/C [18] [%]	viability, T/C [23] [%]	viability, T/C [24] [%]	viability, T/C [27] [%]	viability, T/C [28] [%]	viability, T/C [31] [%]	further results
Cn1nccc1Nc1nccc(-c2cc3c(s2)C(C)(C)N(CCN2CCOCC2)C3=O)n1 + CNCc1ccccc1-c1csc(C(C)Nc2nc(C)nc3cc(OC)c(OC)cc23)c1	1050	784	913	< 31.6	< 31.6	99.7	84.2	98.3	81.4	103	100	0.21	0.22	0.11	0.15						viability, T/C [3]: 60.7%; viability, T/C [4]: 54.2%; viability, T/C (second compound 0.1 µM, first compound 3.16 µM): 36.5%; viability, T/C (second compound 0.1 µM, first compound 10 µM): 18%; viability, T/C [7]: 60.9%; viability, T/C [8]: 49.6%; viability, T/C (second compound 0.316 µM, first compound 3.16 µM): 29.4%; viability, T/C (second compound 0.316 µM, first compound 10 µM): 18.3%; viability, T/C [11]: 71.9%; viability, T/C [12]: 47.7%; viability, T/C (second compound 1 µM, first compound 3.16 µM): 22.3%; viability, T/C (second compound 1 µM, first compound 10 µM): 0.54%; viability, T/C [15]: 0.19%; viability, T/C [16]: 0.51%; viability, T/C (second compound 3.16 µM, first compound 3.16 µM): 0.08%; viability, T/C (second compound 3.16 µM, first compound 10 µM): 0.36%; viability, T/C [19]: 0.14%; viability, T/C [20]: 0.14%; viability, T/C (second compound 10 µM, first compound 3.16 µM): 0.19%; viability, T/C (second compound 10 µM, first compound 10 µM): 0.2%
CN(C)C/C=C/C(=O)Nc1cc2c(Nc3ccc(F)c(Cl)c3)ncnc2cc1O[C@H]1CCOC1 + COc1cc2nc(C)nc(NC(C)c3cc(N)cc(C(F)(F)F)c3)c2cc1OC1CCOC1	> 100	> 100	> 100	> 100	> 100	86.8	85	80.4	61.1	84.3	77.2	77.8	71.8	91.8	72.7	74.3	79.6	63.5	74.5	82.6	viability, T/C [21]: 91.4%; viability, T/C [22]: 93.2%; viability, T/C [25]: 78.4%; viability, T/C [26]: 84.8%; viability, T/C [29]: 79.8%; viability, T/C [30]: 99.6%; viability, T/C [32]: 69.8%; viability, T/C [33]: 91.5%; viability, T/C [34]: 93.9%; viability, T/C [35]: 88.5%; viability, T/C [36]: 71.2%; viability, T/C [37]: 90.2%; viability, T/C [38]: 82.8%; viability, T/C [39]: 86%; viability, T/C [40]: 85.4%
CC(C)n1nc(-c2ccc3oc(N)nc3c2)c2c(N)ncnc21 + C=CC(=O)N1CCN(c2nc(=O)n(-c3c(C)ccnc3C(C)C)c3nc(-c4c(O)cccc4F)c(F)cc23)C(C)C1	9.61	7.5	7.19	3.43	0.703	36.7	27.2	35.5	26.9	36.6	24	26.9	23.1		18.8	63.6	52.8	65.5	44.6	64.3	viability, T/C [21]: 110%; viability, T/C [22]: 97.8%; viability, T/C [25]: 117%; viability, T/C [26]: 98.1%; viability, T/C [29]: 117%; viability, T/C [30]: 102%; viability, T/C [32]: 43.8%; viability, T/C [33]: 91.7%; viability, T/C [34]: 79.7%; viability, T/C [35]: 51.9%; viability, T/C [36]: 29.7%; viability, T/C [37]: 58.1%; viability, T/C [38]: 46.9%; viability, T/C [39]: 32.5%; viability, T/C [40]: 25.7%
CCN1CCN(Cc2ccc(Nc3ncc(F)c(-c4cc(F)c5nc(C)n(C(C)C)c5c4)n3)nc2)CC1 + C=CC(=O)N1CCN(c2nc(=O)n(-c3c(C)ccnc3C(C)C)c3nc(-c4c(O)cccc4F)c(F)cc23)C(C)C1	> 1000	> 1000	> 1000	> 1000	> 1000	110	100	91.1	101	94.5	95.5	91.8	80.5	89.4	74.6	113	100	114	108	112	viability, T/C [3]: 122%; viability, T/C [4]: 97.2%; viability, T/C [7]: 117%; viability, T/C [8]: 109%; viability, T/C [32]: 108%; viability, T/C [11]: 113%; viability, T/C [12]: 96.7%; viability, T/C [35]: 89.2%; viability, T/C [36]: 99.4%; viability, T/C [15]: 88.4%; viability, T/C [16]: 88.8%; viability, T/C [39]: 81%; viability, T/C [40]: 88.3%; viability, T/C [19]: 66.7%; viability, T/C [20]: 50.7%
